SMILES strings stand for the structures.

These results are taken from a melting point compilation (Tetko et al.; mined from patent text by program, amines drawn as free bases though some values may be those of a salt).

The melting point is the temperature of the solid-liquid transition.

The compound `Cc1ccsc1C(O)CCN(C)C` (stereo unspecified) displayed a melting point of 41.5 to 42.5 °C. Next, `OC1(c2ccc(Cl)cc2)CCN(Cc2c[nH]c3ccccc23)CC1`: 213 to 214 °C. As for `O=C1C2CCC(C(=O)N2Cc2ccccc2)N1Cc1ccccc1`, the figure is 168 to 170 °C; as for `CCn1nc(C(N)=O)cc1CC(C)C`, 125 to 126 °C; as for `COc1ccc(O)c(C2(CO)C(=O)N(Cc3ccc(C(F)(F)F)o3)c3ccc(F)cc32)n1` (stereo unspecified), 110 to 113 °C. Compound `COc1cc2[nH]c(=O)c(-c3csc(-c4ccncc4)n3)c(N)c2cc1OC` returned a melting point of over 250 °C. Next, `O=C(O)Cn1c(-c2ccc(C(F)(F)F)cc2)nc2cccnc21`: 240 to 241 °C; `Oc1cc2ccc(Br)cc2cc1C12CC3CC(CC(C3)C1)C2`: 215 to 216 °C; `O=C(NCc1ccc(F)cc1)c1ccnc(N2CCN(Cc3ccc(F)cc3)C2=O)c1`: 173 to 175 °C. Next, `COc1ccc(-n2nnnc2C(F)(F)F)cc1CN[C@H]1CCN(C(=O)CNC(C)=O)C[C@H]1c1ccccc1`: 112 to 115 °C. Next, `CC(=O)c1cc(Cl)cc(Oc2ncccc2C(=O)NC[C@H]2CC[C@H](C(C)(C)O)CC2)c1`: 133 to 135 °C; `COc1cc2c(=O)c(Cc3cccnc3)cn3c4cc(Br)ccc4c(=O)c(c1)c23`: 247 to 249 °C; `Cc1nc2c(N)nc3c(c2n1CCCCCS(C)(=O)=O)CCCC3`: 172 to 174 °C. Turning to `CSc1ccc(C(=O)O)cc1OC1CCCC1`, the melting point lay within 158 to 160 °C. Next, `N#Cc1c(NC2CCCCC2)cccc1-c1ccccc1`: 125 to 126 °C. In turn, `[N-]=[N+]=NC1(c2nc(N)nc(N)n2)C=CC(c2ccccc2)=CC1` (stereo unspecified) returned a melting point of 230 °C. Consider `CCNC(=S)n1nc(Oc2c(Cl)cc(C(F)(F)F)cc2Cl)cc1C`, for which the melting point was 94 to 96 °C. In the case of `COc1ccc(C(OCC2OC(n3cc(C)c(=O)[nH]c3=O)CC2O)(c2ccccc2)c2ccc(OC)cc2)cc1` (stereo unspecified), the melting point was 124 to 126 °C.

Compound `COc1cc(Nc2c(C#N)cnc3cc(-c4ccc(C=O)cc4)sc23)c(Cl)cc1Cl` yielded a melting point of 261 to 262 °C. As for `CC1(C(O)=C(Cc2ccc(Cl)cc2Cl)n2cncn2)COCOC1`, the melting point was 190 to 192 °C. `COc1ccc(Cc2nc3n(c2Cc2ccc(OC)cc2)CCS3(=O)=O)cc1` showed a melting point of 231 to 232 °C. As for `CCOC(=O)C(C(=O)N(C)C)=C(OCc1ccccc1)c1ccc(Cl)cc1Cl`, the figure is 115 °C; as for `CCn1ncc2c(NCCc3ccccc3)c3ccccc3nc21`, 157 to 158 °C; as for `CCc1nnc2nc(-c3cccc(C(F)(F)F)c3)ccn12`, 223 to 224 °C. As for `COC(=O)Cc1ccc(OCC2CN(c3ccc(C(=N)N)cc3)C(=O)O2)cc1` (stereo unspecified), the figure is 151 to 152 °C. As for `O=C(O)/C=C/C(=O)c1ccoc1`, the figure is 104 to 106 °C; as for `CCCCc1ncc(/C=C2\C(=O)NC(=O)N2Cc2ccccc2)n1Cc1ccc(C(=O)O)cc1`, 297 to 298 °C. Take `CCOC(=O)c1ccc(C2=NOCCS2)cc1`: the melting point lay in the range of 69 to 70 °C. For `NC(=O)c1c2ccsc2nc2c1c1ccccc1n2Cc1ccccc1`, the melting point is 242 to 245 °C.

Take `CCNC(=O)c1ccc(N2CCN(Cc3cnc4c(c3)[nH]c(=O)n3cccc43)CC2)cc1`: the melting point lay in the range of 252 to 260 °C. As for `CC(C)(C)NC(=O)c1ncccc1CC(=O)C1CCC(C(=O)O)CC1` (stereo unspecified), the figure is 160 °C; as for `CCCN(CCC)C(=O)n1ccc(S(=O)(=O)c2c(C)cc(C)cc2C)n1`, 64 to 65 °C; as for `CC(=O)NC[C@H]1CN(c2cc(F)c(N3CCC(n4nnc(N5CCNCC5)n4)CC3)c(F)c2)C(=O)O1`, 180 to 185 °C. `NCCCN1c2ccccc2N=C(c2ccccc2F)c2ccccc21` yielded a melting point of 144 to 145 °C. As for `Cc1nc(-c2ccc(-c3cscn3)cc2)c(-c2ccc(S(C)(=O)=O)c(F)c2)o1`, the figure is 196 to 197 °C; as for `N#Cc1cnc2c(oc3ccccc32)c1Nc1ccc(Oc2ccccc2)cc1`, 175 to 179 °C; as for `COc1cc(OC)c(S(C)(=O)=O)cc1C(=O)O`, 292 °C. As for `Cc1cc(C)c2c(n1)Nc1cc(C)c(C)cc1NC2=O`, the figure is 264 to 268 °C; as for `COc1cc2ncnc(NC3=CC(=O)C(c4ccccc4)=CC3=O)c2cc1OC`, 200 to 205 °C. As for `COc1ccc(CCl)cc1OCc1nc(-c2ccco2)oc1C`, the figure is 115 to 116 °C. For the compound `CCCC[C@H](NC(=O)[C@H](CC(C)C)NC(=O)c1ccc(F)c(F)c1)C(=O)CSCc1ccco1`, the melting point is 94 to 100 °C.

Compound `CCCc1nc2c(N)ncc(Br)c2n1CCOCCNC(=O)NC1CCCCC1` displayed a melting point of 185 to 186 °C. Next, `O=C(Nc1cccnc1)N1CCN(c2nccc(-c3ccc(F)cc3F)n2)CC1`: 206 to 207 °C; `Cc1ccc(-c2ccc(S(C)(=O)=O)c(F)c2)n1-c1ccc(-c2cscn2)cc1`: 215 °C; `CC12CC(=O)C3C(CCC4C(Br)C(O)CCC43C)C1CCC2C(=O)CBr` (stereo unspecified): 164 to 166 °C. Next, `O=[N+]([O-])c1ccc2c(c1)C=Cc1ccc(Br)cc1S2`: 190 to 192 °C; `CCSc1nc2c(C)sc(C(=O)O)c2n1Cc1ccc(-c2ccccc2-c2n[nH]c(=O)n2C)cc1`: 181 to 182 °C. `C[C@H](C(=O)O)c1ccc2cc(OCCCCCCc3ccc(O)c(O)c3)ccc2c1` yielded a melting point of 103 to 106 °C. As for `CS(=O)(=O)c1ccc(-n2nc(C(=O)N3CCOCC3)cc2-c2ccc(-c3ccco3)cc2)cc1F`, the figure is 221 to 222 °C. Next, `COc1ncc(C(F)(F)F)cc1-c1cccn2nc(Nc3ccc(C4CCN(C(=O)OC(C)(C)C)CC4)cc3)nc12`: 142 to 144 °C; `COc1ccc2nc(NC(=O)C(CC3CCCC3)c3ccc(S(=O)(=O)Nc4cccnc4)cc3)sc2n1` (stereo unspecified): 125 to 127 °C; `CC(=O)Nc1c(C)c(C)c2c(c1[N+](=O)[O-])CC(C)(C)O2`: 203 °C. As for `CCCCCc1cc(OC)c(C2=C[C@H]3CC[C@]2(CO)C3(C)C)c(OC)c1`, the figure is 26 to 27 °C; as for `O=C(O)c1ccc(CNc2cc(Br)ccc2OCc2ccccc2)cc1`, 216 to 217 °C; as for `Cc1nc(-c2ccccc2)nc(-c2ccncc2)c1NC(=O)OC(C)(C)C`, 166 to 167 °C. For `O=[N+]([O-])c1ccccc1NCC(F)(F)F`, the melting point lay within 84 to 89 °C.

For `CCOC(=O)C(C)=Cc1cn(-c2cccnc2)c2ccccc12`, the melting point was in the range of 97 to 99 °C. In the case of `O=S(=O)(Cc1n[nH]c(-c2cccs2)n1)c1ccccc1`, the melting point is 191 to 193 °C. Next, `C=CC(O)C1=C(C)C(=NO)CCC1(C)C` (stereo unspecified): 138 to 142 °C. Compound `O=C1CCC(N2Cc3cc(CNC(=O)c4ccccc4)ccc3C2=O)C(=O)N1` (stereo unspecified) displayed a melting point of 266 to 268 °C. `Cn1cccc1-c1ccc2c(c1)C(C)(C)OC(=O)N2` returned a melting point of 230 °C. As for `COC(=O)C1CSc2ccc(Cl)cc2C1=O` (stereo unspecified), the figure is 64 to 67 °C; as for `CC(C)(C)c1ccc(-c2nnc(-c3ccc(C(=O)O)cc3)o2)cc1`, 284 to 286 °C; as for `COC(=O)C(=O)c1ccc(OCCOc2ccc3c(c2)CCCC3)cc1`, 95 to 99 °C. In turn, `CC(=O)N1CC=C(C#Cc2ccc3c(c2)NC(=O)CC(c2cccc(C#N)c2)=N3)CC1` came in with a melting point of 203 °C. As for `O=C(O)C(Cc1cccc2c1CCCC2)Cc1cccc2c1CCCC2`, the figure is 144 to 146 °C; as for `O=C(c1ccccc1)N1CCSc2cccc(Cl)c2C1`, 64 to 72 °C.

As to `COCc1cc(OC)c(-c2ccc(C[C@H](NC(=O)c3c(Cl)cccc3Cl)C(=O)O)cc2)c(OC)c1`, the melting point lay within 232 to 235 °C. For `CCCCc1oc2ccccc2c1-c1ncc(-c2ccc3c(Br)c(OCc4nnn[nH]4)ccc3c2)o1`, the melting point was in the range of 235 to 237 °C. As for `N#CC(C#N)=C1Sc2nc3ccc(Cl)cc3nc2S1`, the figure is over 300 °C. Next, `CCN1c2ncc(CCc3cncnc3)cc2C(=O)N(C)c2cccnc21`: 142 to 143 °C; `CC(=O)N1N=C(c2ccc([N+](=O)[O-])cc2)c2cc(Cl)c(Cl)cc2CC1C` (stereo unspecified): 198 to 200 °C; `COC(=O)c1cc(NC(=O)Nc2ccc([N+](=O)[O-])cc2)cc(C(=O)OC)c1`: 193 to 195 °C. On to `O=C(CCCCCN1CCN(c2cccc(C(F)(F)F)c2)CC1)N1Cc2ccc(C(=O)N3CCCCC3)cc2C1`, for which the melting point was found to be 91 °C. In turn, `CNc1nc(NN)ncc1C#N` displayed a melting point of 247 to 249 °C. As for `N#Cc1ccc(C(Cl)=NNc2c(Cl)cc(C(F)(F)F)cc2Cl)cc1`, the figure is 168 to 169 °C; as for `COc1cc(Nc2nccc(-c3ccc4ccccc4c3)n2)cc(OC)c1OC`, 156 °C. Consider `O=C(OCc1cc2c3ccccc3[nH]c(=O)n2n1)c1ccccc1`, for which the melting point was in the range of 262 to 265 °C. On to `CN(C[C@H]1CC[C@H](NC(=O)OCc2ccccc2)CC1)C1CCOCC1`, for which the melting point was 81 to 84 °C. `COc1ccc(-c2ccc3cnc(Nc4ccc(N5CCN(C)CC5)cc4OC)nn23)cn1` displayed a melting point of 170 to 173 °C. In the case of `CCCCCCCCCCCCCCC(OC)C(=O)OC` (stereo unspecified), the melting point fell in the range of 28.6 to 30.6 °C. Next, `COc1ccc(CCN2CCC(C(=O)c3nc4ccccc4s3)CC2)cc1`: 119 to 120 °C; `CS(=O)(=O)c1ccc(-c2cc(C(=O)CCCO)nn2C2CCCCC2)cc1`: 112 to 114 °C; `COc1cc(CC(=O)NCCCc2ccc(C)c(C)c2)ccc1OCCBr`: 105 °C. As for `CCOC(=O)N1Cc2ccccc2C(Oc2ccc(C(F)(F)F)cc2)C1` (stereo unspecified), the figure is 84 °C. Next, `O=C1C(=O)N(CCCCN2CCN(C(c3ccccc3)c3ccccc3)CC2)c2ccccc21`: 127 to 129 °C.
